Here are results for seven molecules from ChEMBL document CHEMBL1130646, “Excellent acceleration of the Diels-Alder reaction by microwave irradiation for the synthesis of new fluorine-substituted ligands of NMDA receptor” (Bioorg Med Chem Lett, 1998).

This assay has as its target Glutamate NMDA receptor. In words: Displacement of [3H]TCP from the TCP site of NMDA receptor in rat brain homogenate. The class given is tissue-based. (Displacement assays read how much labelled ligand stays bound in the presence of the test substance.)
One may read the IC50 as the point on the concentration scale where inhibition reaches its midpoint. Consider `c1csc(C2(c3cccs3)CC3c4ccccc4C2c2cccc[n+]23)c1` (configuration not stated), for which the IC50 came out at 3.6 nM. For `OCCc1ccc(C2(c3ccc(CCO)s3)CC3c4ccccc4C2c2cccc[n+]23)s1` (configuration not stated) the value was 12400 nM. For `FCCc1ccc(C2(c3cccs3)CC3c4ccccc4C2c2cccc[n+]23)s1` (stereo in doubt; 18) the value was 47 nM; for `FCCc1ccc(C2(c3cccs3)CC3c4ccccc4C2c2cccc[n+]23)s1` (stereo in doubt; 19), 89 nM. As for `OCCc1ccc(C2(c3cccs3)CC3c4ccccc4C2c2cccc[n+]23)s1` (stereo in doubt; 20), the IC50 is 61 nM. `OCCc1ccc(C2(c3cccs3)CC3c4ccccc4C2c2cccc[n+]23)s1` (stereo in doubt; 21) had an IC50 of 141 nM.

`c1ccc(C2(N3CCCCC3)CCCCC2)cc1` [PHENCYCLIDINE] came in with a half-inhibitory concentration (IC50) of 47 nM.
